Test results taken from US11976083B2, “Inhibitors of peptidylarginine deiminases” (Gilead Sciences, Inc., priority 2020, dated 2024).

The compounds below were run against T1, human PAD4 (Homo sapiens, UniProt Q9UM07) (assay: In vitro PAD4 BAEE biochemical assay). Details: BAEE substrate 3 mM, 5 nM PAD4, 2 mM calcium chloride; geometric mean of multiple experiments.
T1 construct: human PAD4 (NM_012387), A2-P663, was PCR amplified; His-SUMO (N, cleaved yes); made in house; host or cells: E. coli BL21(DE3)
Procedure, shortened: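 Fluorescence read-out (ex 405/em 535 nm) of isoindole formed from ammonia, o-phthalaldehyde and DTT after EDTA stop. Reaction: 5 nM PAD4, 2 mM CaCl2, 3 mM BAEE, 2 h, 25 °C, after 30 min enzyme–compound preincubation. Normalised to BB-Cl-Amidine (50 µM) and DMSO controls.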

T1 sequence (Q9UM07 2-663): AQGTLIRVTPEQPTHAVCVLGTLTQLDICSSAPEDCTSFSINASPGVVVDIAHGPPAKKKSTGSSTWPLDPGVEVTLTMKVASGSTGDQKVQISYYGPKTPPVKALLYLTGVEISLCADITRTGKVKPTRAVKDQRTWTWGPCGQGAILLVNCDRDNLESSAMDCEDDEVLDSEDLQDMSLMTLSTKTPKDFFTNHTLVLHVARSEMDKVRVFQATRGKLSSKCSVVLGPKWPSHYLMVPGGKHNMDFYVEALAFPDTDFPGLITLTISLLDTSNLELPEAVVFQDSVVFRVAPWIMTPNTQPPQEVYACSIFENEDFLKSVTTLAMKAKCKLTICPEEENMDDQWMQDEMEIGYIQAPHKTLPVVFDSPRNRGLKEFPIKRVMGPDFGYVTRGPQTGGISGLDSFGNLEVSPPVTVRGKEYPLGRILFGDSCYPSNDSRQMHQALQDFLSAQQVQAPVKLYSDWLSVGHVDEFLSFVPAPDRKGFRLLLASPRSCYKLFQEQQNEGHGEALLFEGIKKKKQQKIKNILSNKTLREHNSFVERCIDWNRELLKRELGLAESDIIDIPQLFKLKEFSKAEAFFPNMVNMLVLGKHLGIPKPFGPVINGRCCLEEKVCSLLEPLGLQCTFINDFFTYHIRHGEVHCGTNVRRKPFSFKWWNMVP

SMILES	IC50 [nM]
COc1cc(C(=O)N2C[C@H]3CC[C@@H]2[C@@H]3N)cc2nc(-c3cc4ccc5nc4n3CCCCCCCCC(=O)N[C@@H]5C)n(C)c12 [Example 289, (12~{R})-18-[5-[(1~{R},4~{R},7~{R})-7-amino-2-azabicyclo[2.2.1]heptane-2-carbonyl]-7-methoxy-1-methyl-benzimidazol-2-yl]-12-methyl-1,11,20-triazatricyclo[11.5.2.0^{16,19}]icosa-13(20),14,16(19),17-tetraen-10-one]	25
COc1cc(C(=O)N2[C@H]3CC[C@@H]2[C@H](N)C3)cc2nc(-c3cc4ccc5nc4n3CCCCCCOc3ncccc3-5)n(C)c12 [Example 83, [(1~{R},2~{R},4~{S})-2-amino-7-azabicyclo[2.2.1]heptan-7-yl]-[7-methoxy-1-methyl-2-(8-oxa-6,15,21-triazatetracyclo[13.5.2.0^{2,7}.0^{18,22}]docosa-1(21),2,4,6,16,18(22),19-heptaen-16-yl)benzimidazol-5-yl]methanone]	204
COc1cc(C(=O)N2C[C@H](N)[C@@H]3CC[C@H]2C3)cc2nc(-c3cc4ccc5nc4n3CCCCC[C@]3(F)C[C@@]3(C)C(=O)N[C@@H]5C)n(C)c12 [Example 916, (2~{R},5~{S},7~{S})-14-[5-[(1~{S},4~{R},5~{R})-4-amino-2-azabicyclo[3.2.1]octane-2-carbonyl]-7-methoxy-1-methyl-benzimidazol-2-yl]-7-fluoro-2,5-dimethyl-3,13,19-triazatetracyclo[11.5.2.0^ {5,7}.0^{16,20}]icosa-1(19),14,16(20),17-tetraen-4-one]	26
COc1cc(C(=O)N2CC[C@@H](OC)[C@@H](N)C2)cc2nc(-c3cc4ccc5c(F)c4n3CC(F)(F)CCC[C@@H]3C[C@H]3C(=O)N[C@@H]5C)n(C)c12 [Example 648, (2~{R},5~{R},7~{R})-14-[5-[(3~{S},4~{R})-3-amino-4-methoxy-piperidine-1-carbonyl]-7-methoxy-1-methyl-benzimidazol-2-yl]-11,11,19-trifluoro-2-methyl-3,13-diazatetracyclo[11.5.2.0^ {5,7}.0^{16,20}] icosa-1(19),14,16(20), 17-tetraen-4-one]	41
COc1cc(C(=O)N2CCC[C@@H](N)C2)cc2nc(-c3cc4ccc5nc4n3CCCCCCC(=O)N[C@@H]5C)c(C)n12 [Example 300, (10~{R})-16-[7-[(3~{R})-3-aminopiperidine-1-carbonyl]-5-methoxy-3-methyl-imidazo[1,2-a]pyridin-2-yl]-10-methyl-1,9,18-triazatricyclo[9.5.2.0^{14,17}]octadeca-11(18),12,14(17),15-tetraen-8-one]	50
COc1cc(C(=O)N2CC[C@@H](OC)[C@@H](N)C2)cc2nc(-c3cc4ccc5nc4n3CCCCC[C@H]3C[C@]3(F)C(=O)N[C@@H]5C)n(C)c12 [Example 688, (2~{R},5~{R},7~{S})-14-[5-[(3~{S},4~{R})-3-amino-4-methoxy-piperidine-1-carbonyl]-7-methoxy-1-methyl-benzimidazol-2-yl]-5-fluoro-2-methyl-3,13,19-triazatetracyclo[11.5.2.0^ {5,7}.0^{16,20}]icosa-1(19), 14,16(20),17-tetraen-4-one]	719
COc1cc(C(=O)N2CC[C@@H](C)[C@@H](N)[C@@H]2C)cc2nc(-c3cc4ccc5nc4n3CC(F)(F)CCC[C@@H]3C[C@H]3C(=O)N[C@@H]5C)n(C)c12 [Example 676, (2~{R},5~{R},7~{R})-14-[5-[(2~{S},3~{R},4~ {R})-3-amino-2,4-dimethyl-piperidine-1-carbonyl]-7-methoxy-1-methyl-benzimidazol-2-yl]-11,11-difluoro-2-methyl-3,13,19-triazatetracyclo[11.5.2.0^ {5,7}.0^{16,20}] icosa-1(19),14,16(20), 17-tetraen-4-one]	83
C[C@H]1NC(=O)c2ccc(Cl)nc2CCCCCn2c(-c3nc4cc(C(=O)N5C[C@H](N)[C@@H]6CC[C@H]5C6)cc(F)c4n3CC(F)F)cc3ccc1nc32 [Example 925, (2~{R})-17-[5-[(1~{S),4~{R},5~ {R})-4-amino-2-azabicyclo[3.2.1]octane-2-carbonyl]-1-(2,2-difluoroethyl)-7-fluoro-benzimidazol-2-yl]-8-chloro-2-methyl-3,9,16,22-tetrazatetracyclo[14.5.2.0^ {5,10}.0^{19,23}]tricosa-1(22),5(10),6,8,17,19(23),20-heptaen-4-one]	40
C[C@H]1NC(=O)[C@@H]2C[C@H]2CCCCCn2c(-c3nc4cc(C(=O)N[C@H]5CNCC[C@@H]5F)c(F)cc4n3CCOC3CC3)cc3ccc1nc32 [Example 600, 1-[2-(cyclopropoxy)ethyl]-6-fluoro-~{N}-[(3~{S},4~ {S})-4-fluoro-3-piperidyl]-2-[(2~{R},5~{R},7~{R})-2-methyl-4-oxo-3,13,19-triazatetracyclo[11.5.2.0^ {5,7}.0^{16,20}]icosa-1(19),14,16(20),17-tetraen-14-yl]benzimidazole-5-carboxamide]	46
COc1cc(C(=O)N2CC[C@@H](OC)[C@@H](N)C2)cc2nc(-c3cc4ccc5nc4n3CCCCCc3ccccc3C(=O)N[C@@H]5C)n(C)c12 [Example 43, (2~{R})-17-[5-[(3~{S},4~{R})-3-amino-4-methoxy-piperidine-1-carbonyl]-7-methoxy-1-methyl-benzimidazol-2-yl]-2-methyl-3,16,22-triazatetracyclo[14.5.2.0^{5,10}.0^{19,23}] tricosa-1(22),5,7,9,17,19(23),20-heptaen-4-one]	118
CO[C@@H]1CCN(C(=O)c2cc(F)c3c(c2)nc(-c2cc4ccc5nc4n2CC(F)(F)CCC[C@@H]2C[C@H]2C(=O)N[C@@H]5C)n3[C@@H]2C[C@H]2F)C[C@@H]1N [Example 837, (2~{R},5~{R},7~{R})-14-[5-[(3~{S},4~{R})-3-amino-4-methoxy-piperidine-1-carbonyl]-7-fluoro-1-[(1~{R},2~{R})-2-fluorocyclopropyl]benzimidazol-2-yl]-11,11-difluoro-2-methyl-3,13,19-triazatetracyclo [11.5.2.0^{5,7}.0^{16,20}] icosa-1(19),14,16(20), 17-tetraen-4-one]	30

These reach a lower IC50. Values come first.

IC50 [nM]	SMILES
20	C[C@H]1NC(=O)[C@@H]2C[C@@]2(F)/C=C/CCCn2c(-c3nc4cc(C(=O)N5C[C@H](N)[C@@H]6CC[C@H]5C6)cc(F)c4n3C3CC3)cc3ccc1nc32 [Example 919, (2~{R},5~{S},7~{R},8~{E})-14-[5-[(1~{S},4~{R},5~{R})-4-amino-2-azabicyclo[3.2.1]octane-2-carbonyl]-1-cyclopropyl-7-fluoro-benzimidazol-2-yl]-7-fluoro-2-methyl-3,13,19-triazatetracyclo[11.5.2.0^ {5,7}.0^{16,20}]icosa-1(19),8,14,16(20),17-pentaen-4-one]
13	COc1cc(C(=O)N2C[C@H](N)[C@@H]3CC[C@H]2C3)cc2nc(-c3cc4ccc5nc4n3CC(F)(F)CCCc3ccccc3C(=O)N[C@@H]5C)n(C)c12 [Example 716, (2~{R})-17-[5-[(1~{S},4~ {R},5~{R})-4-amino-2-azabicyclo[3.2.1]octane-2-carbonyl]-7-methoxy-1-methyl-benzimidazol-2-yl]-14,14-difluoro-2-methyl-3,16,22-triazatetracyclo [14.5.2.0^{5,10}.0^{19,23}] tricosa-1(22),5(10),6,8,17, 19(23),20-heptaen-4-one]
9	C[C@H]1NC(=O)[C@@H]2C[C@H]2CC(F)(F)CCCn2c(-c3nc4cc(C(=O)N[C@H]5CNCC[C@@H]5F)c(F)cc4n3C)cc3ccc1nc32 [Example 625, 2-[(2~{R},5~{R},7~{S})-9,9-difluoro-2-methyl-4-oxo-3,13,19-triazatetracyclo[11.5.2.0^ {5,7}.0^{16,20}]icosa-1(19),14,16(20),17-tetraen-14-yl]-6-fluoro-~ {N}-[(3~{S},4~{S})-4-fluoro-3-piperidyl]-1-methyl-benzimidazole-5-carboxamide]
12	COc1cc(C(=O)N2[C@H]3CC[C@@H]2[C@H](N)C3)cc2nc(-c3cc4ccc5nc4n3C[C@H]3C[C@H]3COCCC(=O)N[C@@H]5C)c(C)n12 (single isomer, unassigned) [Example 327, (3˜{S},5˜{R},12˜{R})-18-[7-[(1˜{R},2˜{R},4˜{S})-2-amino-7-azabicyclo[2.2.1]heptane-7-carbonyl]-5-methoxy-3-methyl-imidazo[1,2-a]pyridin-2-yl]-12-methyl-7-oxa-1,11,20-triazatetracyclo[11.5.2.0^{3,5}.0^{16,19}]icosa-13(20),14,16(19),17-tetraen-10-one]
5	C[C@@H]1[C@H](N)CCCN1C(=O)c1cc(F)c2c(c1)nc(-c1cc3ccc4nc3n1CC(F)(F)CCC[C@]1(F)C[C@H]1C(=O)N[C@@H]4C)n2C1CC1 [Example 701, (2~{R},5~{S},7~{S})-14-[5-[(2~{R},3~{R})-3-amino-2-methyl-piperidine-1-carbonyl]-1-cyclopropyl-7-fluoro-benzimidazol-2-yl]-7,11,11-trifluoro-2-methyl-3,13,19-triazatetracyclo[11.5.2.0^ {5,7}.0^{16,20}]icosa-1(19),14,16(20),17-tetraen-4-one]
18	COc1cc(C(=O)N2C[C@H](N)C[C@@H](F)C2)cc2nc(-c3cc4ccc5nc4n3CCCCCc3nc4ccsc4cc3C(=O)N[C@@H]5C)n(C)c12 [Example 794, (2~{R})-20-[5-[(3~{R},5~{R})-3-amino-5-fluoro-piperidine-1-carbonyl]-7-methoxy-1-methyl-benzimidazol-2-yl]-2-methyl-8-thia-3,12,19,25-tetrazapentacyclo[17.5.2.0^ {5,13}.0^{7,11).0^{22,26}] hexacosa-1(24),5(13), 6,9,11,20,22,25-octaen-4-one]
